Here are results for three molecules from patent US12350308B2, “Phosphorylcholine conjugates and uses thereof” (TPCERA LTD., priority 2013, dated 2025).

The test system of one assay is Tregs CD4+CD25+FOXP3+. Description: T regulatory cell profiling by FACS in splenocytes of lupus mice (PC-tuftsin study). It is filed as in vivo. To be noted: PBS 4±0.6 percent. On the procedure:
Mice, from age of 14 weeks, received subcutaneously PC-tuftsin at the concentration of 50 μg/0.1 ml per mouse (treatment; n=10) or PBS (control; n=10), three times a week. In the cytokines studies, the relative mRNA expression levels of pro-inflammatory cytokine IFNγ and anti-inflammatory cytokine TGFβ were analyzed by real time RT-PCR using LightCycler (Roche). Total RNA was isolated from splenocytes and was reverse-transcribed into cDNA by using Moloney Murine Leukemia Virus Reverse Transcriptase (Promega). The resulting cDNA was subjected to real-time RT-PCR in the presence of specific primers, according to the manufacturer's instructions (Table 2). The relative expression levels of IFNγ and TGFβ were normalized to β-actin levels.
Finally, a T regulatory cell (Tregs) profiling assay was performed in isolated splenocytes incubated with the following antibodies: anti-CD4^+FITC, anti-CD25^+APC and anti-FOXP3^+PE (eBioscience) and analyzed by FACS. Forward and side scatter gates adjusted to include all cells and to exclude debris (Becton Dickinson). Cells were gated on CD4+ cells, and for intracellular staining, the cells were incubated with a fixation solution, washed and resuspended in permeabilization solution (Serotec). Isotype control was used as reference.
(In general: In flow cytometry, cells or beads pass a laser one at a time.)

Assay [1] concerns female NZBxW/F1 lupus prone mice. Description: Proteinuria onset and immune complex deposits in lupus prone mice treated with TD-PC. It is filed as in vivo. To be noted: s.c., prophylactic from week 14. An excerpt: To examine the potential protective effect of TD-PC (SEQ ID NO: 25 conjugated to PC), female NZBxW/F1 lupus prone mice received subcutaneous injections (s.c) of the TD-PC conjugate, phosphorylcholine (PC), tuftsin derivative (SEQ ID NO: 25) or PBS (control) via a prophylactic protocol starting at week 14, before the clinical onset of lupus (n ¼ 15 per group).

Assay [2] has as its system NZBxW/F1 lupus mice. Description: Survival of lupus mice treated with TD-PC (Kaplan-Meier). It is filed as in vivo. Particulars: already at week 24. On the procedure:
A main complication of lupus nephritis is a short survival time due to severe kidney failure. Therefore, the survival time of mice treated either with TD-PC or with PC, tuftsin derivative (SEQ ID NO: 25) or PBS (control) was analyzed.

In assay [3] the test system is NZBxW/F1 lupus mice. Description: Circulating anti-dsDNA antibodies in lupus mice treated with TD-PC (ELISA). It counts as in vivo. Particulars: sera at 30 weeks, dilution 1:800; between groups incl. PBS. On the procedure:
Titers of circulating anti-dsDNA antibodies in the sera of control and treated mice were monitored during the development of lupus, and their levels were measured every 3 weeks. […] FIG. 23 presents the anti dsDNA antibodies titers in the sera at the age 30 weeks at a dilution of 1:800.
(In an ELISA, binding on a coated surface is turned into a signal by an enzyme label.)

The test system of assay [4] is splenocytes of NZBW/F1 female mice. Description: Cytokine secretion in-vitro by splenocytes of lupus mice treated with TD-PC. It counts as in vivo. Particulars: vs PBS; for IL-17 secretion from splenocytes: in vitro; for IL-10 secretion by splenocytes / TGFβ production by splenocytes / reduction of splenocyte secretion of IFNγ: in-vitro. On the procedure: NZBW/F1 female mice having lupus were treated with TD-PC (SEQ ID NO: 25 conjugated to PC) or the corresponding control treatments. Mice were sacrificed at week 30, and their splenocytes were studied in-vitro for the expression of pro-inflammatory cytokines (IFNγ, IL-17) and anti-inflammatory (TGFβ, IL-10) cytokines using RT-PCR. […] In contrast, TD-PC increased the mRNA expression of the anti-inflammatory cytokine TGFβ in the (p<0.001) compared to the mRNA expressed by splenocytes derived from PBS-treated mice (FIG. 24A).
However, a prominent increase in anti-inflammatory cytokines (TGFβ, IL-10) secretion in-vitro by splenocytes derived from TD-PC treated mice is illustrated in FIG. 24B. […] IFNγ secretion upon tuftsin derivative (SEQ ID NO: 25) or PC treatments was reduced by 2.5 and 1.5 times respectively (p<0.03 and p<0.04, respectively).

The test system of the next assay is CD4+CD25+FOXP3+ Tregs. Description: Treg expansion in spleen cells of lupus mice treated with TD-PC (FACS). It counts as in vivo. To be noted: gating on CD4+ T cells; PBS 4%. The source says:
The percentage of CD4+CD25+FOXP3+ Tregs phenotype subset in spleen cells following treatment with TD-PC, tuftsin derivative (SEQ ID NO: 25), PC or PBS, is elucidated in FIGS. 25A-25B.

The subject of the next assay is DBA/1 CIA mice. As to the kind of experiment: Arthritis score in mice with established CIA (treatment from day 16). It counts as in vivo. To be noted: for mean arthritis score: day 35, s.c. 3 times a week, PBS 13.8±0.45; for average arthritis score: time 0 (treatment initiation, day 16 after disease induction), baseline. The source says:
Rheumatoid Arthritis is a progressive joint deformation disease caused by severe inflammation. CIA mice were subjected to subcutaneous injections of TD-PC, tuftsin derivative (SEQ ID NO: 25), PC, a mix of TD and PC, or PBS, 3 times a week. […] Treatment started as day 16 after disease induction when disease symptoms were already notable. […] The significant reduction in arthritis score was illustrious from day 7 after treatment administration and lasted until day 35 (the day mice were sacrificed).

Assay [5] concerns splenocytes derived from CIA mice. As to the kind of experiment: Cytokine secretion in-vitro by splenocytes of mice with established CIA. It is filed as in vivo. Particulars: splenocyte culture fluids; for mean IL-10 level: PBS 298; for mean IL-6 level: PBS 840; for mean IL-1β level: PBS 883; for mean TNF-α level: PBS 1073; for mean IL-17 level: PBS 2170. The method, then: Secretion, in-vitro, of pro-inflammatory and anti-inflammatory cytokines by splenocytes derived from CIA mice treated with TD-PC, PBS, TD, PC, TD+PC or untreated mice was evaluated (FIGS. 32A-32D). The following cytokines secretions were examined: pro-inflammatory IL-1β (FIG. 32A), IL-17 (FIG. 32B), IL-6 (FIG. 32C), TNF-α (FIG. 32D) and anti-inflammatory IL-10 (FIG. 32E).

Assay [6] concerns CD4+CD25+FOXP3+ Treg cells. Description: Treg expansion in splenocytes of mice with established CIA (FACS). To be noted: isolated splenocytes; PBS 1.4%. It is filed as in vivo. The source says: The frequency of CD4+CD25+FOXP3+ Treg cells subset in isolated splenocytes from mice treated with TPC, PBS, TD (SEQ ID NO: 25), PC, TD+PC or untreated is elucidated in FIGS. 33A and 33B. […] Representative data of the CD4+CD25+FOXP3+ levels in splenocytes derived from TD-PC, PBS, TD (SEQ ID NO: 25), PC and TD+PC treated mice and the untreated group, gating on CD4+ T cells are presented in FIG. 33B.

Assay [7] has as its system IL-10+CD25+CD1d+ Breg cells. As to the kind of experiment: Breg expansion in splenocytes of mice with established CIA (FACS). It counts as in vivo. To be noted: isolated splenocytes; PBS 0.4%. The method, then:
The mean percentage of Breg cells in isolated splenocytes following treatment with TD-PC, PBS, TD (SEQ ID NO: 25), PC, TD+PC and None was measured within IL-10+CD25+CD1d+ subset. […] Representative data of IL-10+CD25+CD1d+ levels in splenocytes derived from TD-PC, PBS, TD (SEQ ID NO: 25), PC and TD+PC treated mice gating on IL-10+ B cells, are presented in FIG. 34A.

For assay [8] the following is noted: Dagan S et al., 1987; cited from earlier work.

Where no end group is shown, it is not given here.

Consider “threonine-lysine-proline-arginine [tuftsin]”, for which the “enhancement in Tregs CD4+CD25+FOXP3+ expression level” value with Tregs CD4+CD25+FOXP3+ is recorded as “did not cause any significant elevation”.

`C[N+](C)(C)CCOP(=O)(O)O` [PC, phosphorylcholine]: in the assay on Tregs CD4+CD25+FOXP3+, the “enhancement in Tregs CD4+CD25+FOXP3+ expression level” value is recorded as “did not cause any significant elevation”. In addition, the “immune complex (IC) deposits in the mesangium / nephritis class” value in [1] was “did not diminish the development of strong mesangial damage”. For the same molecule, the “percentage of death number vs PBS injected mice” value with NZBxW/F1 lupus mice [2] is “significant difference”. Moreover, in the assay on NZBxW/F1 lupus mice [3], the “titers of circulating anti-dsDNA antibodies” value was “No statistically significant change”. In addition, in [4], the “IL-17 secretion from splenocytes” value is “to a lower extent”, the “IL-10 secretion by splenocytes” value is listed as “did not have any effect”, the “TGFβ production by splenocytes” value is recorded as “minimal effect” and the “reduction of splenocyte secretion of IFNγ” value amounted to 1.5 times. Besides, the “CD4+CD25+FOXP3+ Tregs in spleen cells” value with CD4+CD25+FOXP3+ Tregs came out at 3%. In the assay with DBA/1 CIA mice, this molecule registered a mean arthritis score of 14±0 and an average arthritis score of 3.4±1.1. In addition, in assay [5], the “mean IL-10 level” value worked out at 300 pg/mL, the “mean IL-6 level” value amounted to 795 pg/mL, the “mean IL-1β level” value stood at 860 pg/mL and the “mean TNF-α level” value worked out at 1048 pg/mL. In addition, the “mean IL-17 level” value in assay [5] came out at 2179 pg/mL. In addition, the “mean percentage of CD4+CD25+FOXP3+ Treg cells” value in assay [6] came out at 0.81%. The “mean percentage of IL-10+CD25+CD1d+ Breg cells” value in assay [7] worked out at 0.44%. Also, the “effect on disease progression” value in assay [8] was “inhibitory effect”.

With TKPRGY [TD], the “immune complex (IC) deposits in the mesangium / nephritis class” value in [1] is given as “moderate but not significant effect”. Also, the “percentage of death number vs PBS injected mice” value with NZBxW/F1 lupus mice [2] was “significant difference”. Also, the “titers of circulating anti-dsDNA antibodies” value in the assay on NZBxW/F1 lupus mice [3] is reported as “No statistically significant change”. In assay [4], the “IL-17 secretion from splenocytes” value is “Less significant inhibition”, the “IL-10 secretion by splenocytes” value was “increased IL-10 secretion by splenocytes in-vitro but less significant”, the “TGFβ production by splenocytes” value is “moderately enhanced” and the “reduction of splenocyte secretion of IFNγ” value is listed as 2.5 times. The “CD4+CD25+FOXP3+ Tregs in spleen cells” value in the assay on CD4+CD25+FOXP3+ Tregs came to 8%. In addition, in the assay with DBA/1 CIA mice, the mean arthritis score is 13.8±0.45 and the average arthritis score came to 4.6±1.5. Also, in assay [5], the “mean IL-10 level” value was found to be 304 pg/mL, the “mean IL-6 level” value was 778 pg/mL, the “mean IL-1β level” value was 896 pg/mL and the “mean TNF-α level” value worked out at 1079 pg/mL. The “mean IL-17 level” value in assay [5] was determined as 2217 pg/mL. Further, the “mean percentage of CD4+CD25+FOXP3+ Treg cells” value in [6] stood at 0.52%. Further, the “mean percentage of IL-10+CD25+CD1d+ Breg cells” value in [7] is 0,5%.
